Like-named read-outs stand apart in the source and are kept apart here.
Assays:
HPV16-PsV = assay: organism not typed; format: cell-based, HPV-16; settings: for IC50: read-out: HPV Infection IC50; for reduction of HPV-16PsV infection, fold change compared with the control of cells only: 30 μM, secondary stock
293FT cells = assay: cells; format: cell-based, Human; settings: for IC50: read-out: 293FT Cell Viability IC50; for cell viability IC50: control validation, known inhibitor
in vitro = format: cell-based, Human; settings: human
SV40 promoter = SV40 promoter transfection in 293FT cells; format: cell-based; settings: 30.0 μM, vs SV40 with no drug; data not shown

Row | Compound | IC50 (HPV16-PsV; 72 h) [µM] | IC50 (293FT cells; Homo sapiens) [µM] | further results
1 | COc1cc(NS(C)(=O)=O)ccc1Nc1c2ccccc2nc2ccccc12 [Amsacrine] | 0.01 | 1 | –
2 | N=c1ccn2c(n1)O[C@H]1[C@H](O)[C@@H](CO)O[C@H]12 [Ancitabine] | < 0.007 | 5 | –
3 | O=[N+]([O-])C(Br)(CO)CO [Bronopol] | 3 | 7 | –
4 | Cc1cc(C2CCCCC2)n(O)c(=O)c1 [Ciclopirox] | 2 | 8 | –
5 | Nc1nc(Cl)nc2c1ncn2[C@H]1C[C@H](O)[C@@H](CO)O1 [Cladribine] | – | 4 | –
6 | Nc1nc(Cl)nc2c1ncn2[C@@H]1O[C@H](CO)[C@@H](O)[C@@H]1F [Clofarabine] | – | 2 | –
7 | C[C@H]1O[C@@H](n2cc(F)c(=O)[nH]c2=O)[C@H](O)[C@@H]1O [Doxifluridine] | 5 | 16 | –
8 | COc1cc([C@@H]2c3cc4c(cc3[C@@H](O[C@@H]3O[C@@H]5CO[C@@H](C)O[C@H]5[C@H](O)[C@H]3O)[C@H]3COC(=O)[C@H]23)OCO4)cc(OC)c1O [Etoposide] | 0.01 | 1 | –
9 | O=c1[nH]c(=O)n([C@H]2C[C@H](O)[C@@H](CO)O2)cc1F [Floxuridine] | < 0.007 | – | –
10 | O=c1[nH]c(=O)n([C@H]2C[C@H](O)[C@@H](CO)O2)cc1F [Fluorodeoxyuridine] | – | – | IC50 (HPV16-PsV): 4 µM; IC50 (293FT cells): 13 µM
11 | O=c1[nH]cc(F)c(=O)[nH]1 [Fluorouracil] | 1 | 13 | –
12 | CNCCC=C1c2ccccc2CCc2ccccc21 [Nortriptyline] | 6 | > 15 | –
13 | Cc1nccn1CC1CCc2c(c3ccccc3n2C)C1=O (centres unmarked) [Ondansetron] | 5 | – | –
14 | O=C1[O][Pt]2([NH][C@@H]3CCCC[C@H]3[NH]2)[O]C1=O [Oxaliplatin] | – | – | IC50 (HPV16-PsV): 1 µM; IC50 (293FT cells): 8 µM
15 | N=C(N)c1ccc(OCCCCCOc2ccc(C(=N)N)cc2)cc1 [Pentamidine] | 2 | 9 | reduction of HPV-16PsV infection, fold change compared with the control of cells only (HPV16-PsV): twofold; viability at 30 µM (in vitro): > 95%; cellular cytotoxicity (293FT cells; human): < 10.0%; effect on SV40 promoter activity (SV40 promoter): did not significantly affect
16 | CC[C@@]1(O)C(=O)OCc2c1cc1n(c2=O)Cc2cc3c([N+](=O)[O-])cccc3nc2-1 [Rubitecan] | 0.8 | – | –
17 | O=C1C=C2C=C[C@@H]3C[C@@]2(O1)[C@H]1CCCCN31 [Securinine] | 2 | 4 | reduction of HPV-16PsV infection, fold change compared with the control of cells only (HPV16-PsV): 1.5 fold; viability at 30 µM (in vitro): > 95%; cellular cytotoxicity (293FT cells; lead drugs, triplicate): < 10.0%; effect on SV40 promoter activity (SV40 promoter): did not significantly affect
18 | Cc1cc2nc3ccc(N(C)C)cc3[s+]c2cc1N [Tolonium chloride] | 2 | 4 | –
19 | Bleomycin | – | – | IC50 (HPV16-PsV): < 0.007 µM; IC50 (293FT cells): 2 µM
20 | Carrageenan | – | – | cell viability IC50 (293FT cells): ≥ 2 µg/mL
21 | heparin | – | – | inhibition of HPV 16-PsV infection IC50 (HPV16-PsV; control validation, known inhibitor): 24 µg/mL; cell viability IC50 (293FT cells): 83.0 µg/mL

Reference: PMC6925341 (SLAS discovery : advancing life sciences R & D, 2019)
